Source: patent publication US20100041089A1, “IMPROVED METHOD FOR DETECTING CHEMICAL […]” (priority 2006, published 2010)

Tested on: yeast genes (expressed mRNA)
Test: DNA chip measurement of expressed mRNA of yeast genes after culture with a toxic chemical substance
Format: cell-based, Saccharomyces cerevisiae S288C
Conditions: for level of expressed mRNA in the presence of chemical substance / level in the absence of chemical substance: cultured two hours with the chemical substance; for The level of expressed mRNA in the presence of chemical substance/The level of expressed mRNA in the absence of chemical substance: cultured two hours with substance
Summary of the method: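 S. cerevisiae S288C grown at 25 °C in YPD, exposed in log phase for 2 h to a toxicant at growth-inhibiting, non-lethal concentration. Cy3/Cy5-labelled cDNA from poly(A) mRNA hybridized to whole-genome chip at 65 °C >12 h. Ratio to untreated control, ≥2 significant.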

## [Cl][Pb][Cl] [(4), PbCl2]
Yeast gene YJL097W
  level of expressed mRNA in the presence of chemical substance / level in the absence of chemical substance: 1.6
Yeast gene YJL151C
  The level of expressed mRNA in the presence of chemical substance/The level of expressed mRNA in the absence of chemical substance: 1.2
Yeast gene YJL152W
  The level of expressed mRNA in the presence of chemical substance/The level of expressed mRNA in the absence of chemical substance: 1.3
Yeast gene YJL161W
  The level of expressed mRNA in the presence of chemical substance/The level of expressed mRNA in the absence of chemical substance: 4.6
Yeast gene YJL171C
  The level of expressed mRNA in the presence of chemical substance/The level of expressed mRNA in the absence of chemical substance: 1.4
Yeast gene YJR008W
  The level of expressed mRNA in the presence of chemical substance/The level of expressed mRNA in the absence of chemical substance: 1.7
Yeast gene YJR030C
  level of expressed mRNA in the presence of chemical substance / level in the absence of chemical substance: 1.2
Yeast gene YJR054W
  The level of expressed mRNA in the presence of chemical substance/The level of expressed mRNA in the absence of chemical substance: 0.9
Yeast gene YKL051W
  level of expressed mRNA in the presence of chemical substance / level in the absence of chemical substance: 0.8
Yeast gene YKL071W
  The level of expressed mRNA in the presence of chemical substance/The level of expressed mRNA in the absence of chemical substance: 2.8
Yeast gene YKL086W
  The level of expressed mRNA in the presence of chemical substance/The level of expressed mRNA in the absence of chemical substance: 2.6
Yeast gene YKL097C
  level of expressed mRNA in the presence of chemical substance / level in the absence of chemical substance: 1.4
Yeast gene YKL100C
  level of expressed mRNA in the presence of chemical substance / level in the absence of chemical substance: 1.6
Yeast gene YKL151C
  The level of expressed mRNA in the presence of chemical substance/The level of expressed mRNA in the absence of chemical substance: 2.5
Yeast gene YKL153W
  The level of expressed mRNA in the presence of chemical substance/The level of expressed mRNA in the absence of chemical substance: 0.7
Yeast gene YKL195W
  The level of expressed mRNA in the presence of chemical substance/The level of expressed mRNA in the absence of chemical substance: 1.1
Yeast gene YKR040C
  level of expressed mRNA in the presence of chemical substance / level in the absence of chemical substance: 2.9
Yeast gene YKR091W
  The level of expressed mRNA in the presence of chemical substance/The level of expressed mRNA in the absence of chemical substance: 3.5
Yeast gene YLR054C
  The level of expressed mRNA in the presence of chemical substance/The level of expressed mRNA in the absence of chemical substance: 2.4
Yeast gene YLR149C
  The level of expressed mRNA in the presence of chemical substance/The level of expressed mRNA in the absence of chemical substance: 2.3
Yeast gene YLR152C
  The level of expressed mRNA in the presence of chemical substance/The level of expressed mRNA in the absence of chemical substance: 0.9
Yeast gene YLR194C
  The level of expressed mRNA in the presence of chemical substance/The level of expressed mRNA in the absence of chemical substance: 3.6
Yeast gene YLR226W
  level of expressed mRNA in the presence of chemical substance / level in the absence of chemical substance: 1.0
Yeast gene YLR324W
  The level of expressed mRNA in the presence of chemical substance/The level of expressed mRNA in the absence of chemical substance: 1.0
Yeast gene YLR338W
  level of expressed mRNA in the presence of chemical substance / level in the absence of chemical substance: 1.1
Yeast gene YLR350W
  The level of expressed mRNA in the presence of chemical substance/The level of expressed mRNA in the absence of chemical substance: 2.3
Yeast gene YLR387C
  The level of expressed mRNA in the presence of chemical substance/The level of expressed mRNA in the absence of chemical substance: 0.6
Yeast gene YLR392C
  level of expressed mRNA in the presence of chemical substance / level in the absence of chemical substance: 1.9
Yeast gene YLR427W
  level of expressed mRNA in the presence of chemical substance / level in the absence of chemical substance: 0.5
Yeast gene YLR460C
  The level of expressed mRNA in the presence of chemical substance/The level of expressed mRNA in the absence of chemical substance: 1.1
Yeast gene YML013W
  level of expressed mRNA in the presence of chemical substance / level in the absence of chemical substance: 0.6
Yeast gene YML029W
  level of expressed mRNA in the presence of chemical substance / level in the absence of chemical substance: 1.0
Yeast gene YML041C
  level of expressed mRNA in the presence of chemical substance / level in the absence of chemical substance: 1.0
Yeast gene YML079W
  level of expressed mRNA in the presence of chemical substance / level in the absence of chemical substance: 1.5
Yeast gene YML117W
  The level of expressed mRNA in the presence of chemical substance/The level of expressed mRNA in the absence of chemical substance: 1.6
Yeast gene YMR009W
  The level of expressed mRNA in the presence of chemical substance/The level of expressed mRNA in the absence of chemical substance: 1.9
Yeast gene YMR067C
  The level of expressed mRNA in the presence of chemical substance/The level of expressed mRNA in the absence of chemical substance: 0.4
Yeast gene YMR068W
  level of expressed mRNA in the presence of chemical substance / level in the absence of chemical substance: 1.5
Yeast gene YMR071C
  level of expressed mRNA in the presence of chemical substance / level in the absence of chemical substance: 1.9
Yeast gene YMR090W
  The level of expressed mRNA in the presence of chemical substance/The level of expressed mRNA in the absence of chemical substance: 3.5
Yeast gene YMR095C
  The level of expressed mRNA in the presence of chemical substance/The level of expressed mRNA in the absence of chemical substance: 1.0
Yeast gene YMR097C
  The level of expressed mRNA in the presence of chemical substance/The level of expressed mRNA in the absence of chemical substance: 1.6
Yeast gene YMR102C
  The level of expressed mRNA in the presence of chemical substance/The level of expressed mRNA in the absence of chemical substance: 0.8
Yeast gene YMR107W
  The level of expressed mRNA in the presence of chemical substance/The level of expressed mRNA in the absence of chemical substance: 18.4
Yeast gene YMR160W
  level of expressed mRNA in the presence of chemical substance / level in the absence of chemical substance: 1.2
Yeast gene YMR180C
  The level of expressed mRNA in the presence of chemical substance/The level of expressed mRNA in the absence of chemical substance: 1.3
Yeast gene YMR184W
  The level of expressed mRNA in the presence of chemical substance/The level of expressed mRNA in the absence of chemical substance: 1.1
Yeast gene YMR191W
  The level of expressed mRNA in the presence of chemical substance/The level of expressed mRNA in the absence of chemical substance: 1.6
Yeast gene YMR295C
  The level of expressed mRNA in the presence of chemical substance/The level of expressed mRNA in the absence of chemical substance: 1.6
Yeast gene YMR316W
  The level of expressed mRNA in the presence of chemical substance/The level of expressed mRNA in the absence of chemical substance: 1.9
Yeast gene YNL026W
  level of expressed mRNA in the presence of chemical substance / level in the absence of chemical substance: 0.8
Yeast gene YNL044W
  The level of expressed mRNA in the presence of chemical substance/The level of expressed mRNA in the absence of chemical substance: 1.3
